Laboratory results reported in patent US11337976B2 (Plexxikon Inc., priority 2011, dated 2022).

Key:
[1] = system: COLO205 colon adenocarcinoma cells (B-Raf V600E mutation); assay: COLO205 cell growth inhibition assay (ATPlite); format: cell-based, human; details: Homo sapiens
Method: Compounds are assessed in a variety of cell based assays. For example human cell lines with B-RafV600E mutation (A375 melanoma, SKMEL3 melanoma, and COLO205 colon adenocarcinoma), as well as tumorigenic cell lines with wild-type B-RAF (SW620 colon adenocarcinoma) or with Ras mutations (SKMEL2 melanoma and IPC298 melanoma).
On day 1, cells are counted, then centrifuged in a conical tube for 5 minutes at 1000 rpm.
On day 2, compound at a maximum concentration of 5 mM is serially diluted 1:3 (e.g. 10 μL with 30 μL dimethyl sulfoxide) for a total of 8 point titration with DMSO as a control. A 1 μL aliquot of each dilution point and control is added to 249 μL growth media and 50 μL is added to a well containing cells, providing 10 μM compound at the maximum concentration point. The cells are incubated for 3 days at 37° C. in 5% CO2.
ATPlite is added 25 μL to each well, shake for 2 minutes, and the cells are incubated at room temperature for 10 minutes, then luminescence is read on Safire reader. The measured luminescence correlates directly with cell number, such that the reading as a function of compound concentration is used to determine the IC50 value.

[2] = system: A375 melanoma cells (B-Raf V600E mutation); assay: A375 (A375_P-ERK) cell activity / cell growth inhibition assay; format: cell-based, human; details: Homo sapiens, A-375, A375 cells (text: A375_P-ERK)
[3] = COLO 205, compounds known in the art

| SMILES | IC50 [2] [µM] | further results |
| --- | --- | --- |
| COc1ncc(-c2cnc3[nH]cc(C(=O)c4c(F)ccc(NS(=O)(=O)c5cc(F)ccc5F)c4F)c3c2)cn1 | – | IC50 [1, 3]: < 1 µM; IC50 ([2]; compounds known in the art): < 0.5 µM |
| COc1ncc(-c2cnc3[nH]cc(C(=O)c4c(F)ccc(NS(=O)(=O)c5ccccc5F)c4F)c3c2)cn1 | – | IC50 [1, 3]: < 1 µM; IC50 ([2]; compounds known in the art): < 0.5 µM |
| CCCS(=O)(=O)Nc1ccc(F)c(C(=O)c2c[nH]c3ncc(Cl)cc23)c1F | – | IC50 [1, 3]: < 1 µM; IC50 ([2]; compounds known in the art): < 0.8 µM |
| COc1cc(-c2cnc3[nH]cc(C(=O)c4c(F)ccc(NS(=O)(=O)N5CCCC5)c4F)c3c2)ccn1 [P-0287, N-[2,4-difluoro-3-[5-(2-methoxy-4-pyridyl)-1H-pyrrolo[2,3-b]pyridine-3-carbonyl]phenyl]pyrrolidine-1-sulfonamide] | < 1 | – |
| CCN(C)S(=O)(=O)Nc1cccc(C(=O)c2c[nH]c3ncc(C4CCC4)cc23)c1F [P-0297, 5-cyclobutyl-3-[3-[[ethyl(methyl)sulfamoyl]amino]-2-fluoro-benzoyl]-1H-pyrrolo[2,3-b]pyridine] | > 1 | – |
| O=C(c1cccc(NS(=O)(=O)N2CCCC2)c1F)c1c[nH]c2ncc(-c3cccnc3)cc12 [P-0043, N-[2-fluoro-3-[5-(3-pyridyl)-1H-pyrrolo[2,3-b]pyridine-3-carbonyl]phenyl]pyrrolidine-1-sulfonamide] | < 1 | – |
| CCN(C)S(=O)(=O)Nc1ccc(F)c(C(=O)c2c[nH]c3ncc(-c4ccc(OC)nn4)cc23)c1F [P-0317, 3-[3-[[ethyl(methyl)sulfamoyl]amino]-2,6-difluoro-benzoyl]-5-(6-methoxypyridazin-3-yl)-1H-pyrrolo[2,3-b]pyridine] | < 1 | – |
| CN(C)S(=O)(=O)Nc1cccc(C(=O)c2c[nH]c3ncc(-c4ccc(F)cc4)cc23)c1F [P-0035] | < 1 | – |
| CN(C)S(=O)(=O)Nc1cccc(C(=O)c2c[nH]c3ncc(-c4ccc(C5CC5)nc4)cc23)c1F [P-0113, 5-(6-cyclopropyl-3-pyridyl)-3-[3-(dimethylsulfamoylamino)-2-fluoro-benzoyl]-1H-pyrrolo[2,3-b]pyridine] | < 1 | – |
| Cc1ncc(-c2cnc3[nH]cc(C(=O)c4cccc(NS(=O)(=O)N(C)CC5CC5)c4F)c3c2)cn1 [P-0112, 3-[3-[[cyclopropylmethyl(methyl)sulfamoyl]amino]-2-fluoro-benzoyl]-5-(2-methylpyrimidin-5-yl)-1H-pyrrolo[2,3-b]pyridine] | < 1 | – |
| COc1ncc(-c2cnc3[nH]cc(C(=O)c4cccc(NS(=O)(=O)N(C)CC(C)C)c4F)c3c2)cn1 [P-0072, 3-[2-fluoro-3-[[isobutyl(methyl)sulfamoyl]amino]benzoyl]-5-(2-methoxypyrimidin-5-yl)-1H-pyrrolo[2,3-b]pyridine] | < 1 | – |
| CCC(C)S(=O)(=O)Nc1cccc(C(=O)c2c[nH]c3ncc(-c4ccc(N(C)C)nc4)cc23)c1F (stereo not drawn) [P-0230, N-[3-[5-[6-(dimethylamino)-3-pyridyl]-1H-pyrrolo[2,3-b]pyridine-3-carbonyl]-2-fluoro-phenyl]butane-2-sulfonamide] | < 1 | – |
| CCCN(C)S(=O)(=O)Nc1cccc(C(=O)c2c[nH]c3ncc(-c4ccc(C5CC5)nc4)cc23)c1F [P-0114, 5-(6-cyclopropyl-3-pyridyl)-3-[2-fluoro-3-[[methyl(propyl)sulfamoyl]amino]benzoyl]-1H-pyrrolo[2,3-b]pyridine] | < 1 | – |
| O=C(c1cccc(NS(=O)(=O)N2CCCC2)c1F)c1c[nH]c2ncc(C3CC3)cc12 [P-0274, N-[3-(5-cyclopropyl-1H-pyrrolo[2,3-b]pyridine-3-carbonyl)-2-fluoro-phenyl]pyrrolidine-1-sulfonamide] | < 1 | – |
| CCN(C)S(=O)(=O)Nc1ccc(F)c(C(=O)c2c[nH]c3ncc(-c4ccc(C(C)(C)O)nc4)cc23)c1F [P-0307, 3-[3-[[ethyl(methyl)sulfamoyl]amino]-2,6-difluoro-benzoyl]-5-[6-(1-hydroxy-1-methyl-ethyl)-3-pyridyl]-1H-pyrrolo[2,3-b]pyridine] | < 1 | – |
| O=C(c1c(F)ccc(NS(=O)(=O)N2CCCC2)c1F)c1c[nH]c2ncc(-c3ccnc(N4CCOCC4)c3)cc12 [P-0284, N-[2,4-difluoro-3-[5-(2-morpholino-4-pyridyl)-1H-pyrrolo[2,3-b]pyridine-3-carbonyl]phenyl]pyrrolidine-1-sulfonamide] | < 1 | – |

| SMILES | IC50 [2] [µM] | further results |
| --- | --- | --- |
| CN1CCN(c2ncc(-c3cnc4[nH]cc(C(=O)c5c(F)ccc(NS(=O)(=O)N6CCCC6)c5F)c4c3)cn2)CC1 [P-0260, N-[2,4-difluoro-3-[5-[2-(4-methylpiperazin-1-yl)pyrimidin-5-yl]-1H-pyrrolo[2,3-b]pyridine-3-carbonyl]phenyl]pyrrolidine-1-sulfonamide] | < 1 | – |
| CCN(C)S(=O)(=O)Nc1ccc(F)c(C(=O)c2c[nH]c3ncc(-c4csc(C(C)(C)O)n4)cc23)c1F [P-0316, 4-[3-[3-[[ethyl(methyl)sulfamoyl]amino]-2,6-difluoro-benzoyl]-1H-pyrrolo[2,3-b]pyridin-5-yl]-2-(1-hydroxy-1-methyl-ethyl)thiazole] | < 1 | – |
| CCN(C)S(=O)(=O)Nc1ccc(F)c(C(=O)c2c[nH]c3ncc(-c4ccc(C5(O)CC5)cc4)cc23)c1F [P-0314, 3-[3-[[ethyl(methyl)sulfamoyl]amino]-2,6-difluoro-benzoyl]-5-[4-(1-hydroxycyclopropyl)phenyl]-1H-pyrrolo[2,3-b]pyridine] | < 1 | – |
| CCN(C)S(=O)(=O)Nc1ccc(F)c(C(=O)c2c[nH]c3ncc(-c4cnc(C5CC5)nc4)cc23)c1F [P-0240, 5-(2-cyclopropylpyrimidin-5-yl)-3-[3-[[ethyl(methyl)sulfamoyl]amino]-2,6-difluoro-benzoyl]-1H-pyrrolo[2,3-b]pyridine] | < 1 | – |
| CN(C)S(=O)(=O)Nc1ccc(F)c(C(=O)c2c[nH]c3ncc(-c4ccc(C5(C#N)CC5)cc4)cc23)c1F [P-0237, 5-[4-(1-cyanocyclopropyl)phenyl]-3-[3-(dimethylsulfamoylamino)-2,6-difluoro-benzoyl]-1H-pyrrolo[2,3-b]pyridine] | < 1 | – |
| CCN(C)S(=O)(=O)Nc1ccc(F)c(C(=O)c2c[nH]c3ncc(-c4ccc(-c5nnc(NC)s5)cc4)cc23)c1F [P-0305, 2-[4-[3-[3-[[ethyl(methyl)sulfamoyl]amino]-2,6-difluoro-benzoyl]-1H-pyrrolo[2,3-b]pyridin-5-yl]phenyl]-5-(methylamino)-1,3,4-thiadiazole] | < 1 | – |
| CCC(C)S(=O)(=O)Nc1cccc(C(=O)c2c[nH]c3ncc(-c4ccc(C5(C#N)CC5)cc4)cc23)c1F (stereo not drawn) [P-0227, N-[3-[5-[4-(1-cyanocyclopropyl)phenyl]-1H-pyrrolo[2,3-b]pyridine-3-carbonyl]-2-fluoro-phenyl]butane-2-sulfonamide] | < 1 | – |
| CCN(C)S(=O)(=O)Nc1ccc(F)c(C(=O)c2c[nH]c3ncc(-c4cnc(N5CCOCC5)nc4)cc23)c1F [P-0258, 4-[5-[3-[3-[[ethyl(methyl)sulfamoyl]amino]-2,6-difluoro-benzoyl]-1H-pyrrolo[2,3-b]pyridin-5-yl]pyrimidin-2-yl]morpholine] | < 1 | – |
| CCN(C)S(=O)(=O)Nc1ccc(F)c(C(=O)c2c[nH]c3ncc(-c4ccc(-c5nnc(C)o5)cc4)cc23)c1F [P-0304, 2-[4-[3-[3-[[ethyl(methyl)sulfamoyl]amino]-2,6-difluoro-benzoyl]-1H-pyrrolo[2,3-b]pyridin-5-yl]phenyl]-5-methyl-1,3,4-oxadiazole] | < 1 | – |
| CCN(C)S(=O)(=O)Nc1cccc(C(=O)c2c[nH]c3ncc(-c4ccc(C)nc4)cc23)c1F [P-0033] | < 1 | – |
| CCCNS(=O)(=O)Nc1cccc(C(=O)c2c[nH]c3ncc(-c4cnn(C)c4)cc23)c1F [P-0242, [2-fluoro-3-(propylsulfamoylamino)phenyl]-[5-(1-methylpyrazol-4-yl)-1H-pyrrolo[2,3-b]pyridin-3-yl]methanone] | > 1 | – |
| CN(C)S(=O)(=O)Nc1cccc(C(=O)c2c[nH]c3ncc(-c4ccc(C#N)cc4)cc23)c1F [P-0027] | < 1 | IC50 ([1]; COLO 205): < 1 µM |
| O=C(c1c(F)ccc(NS(=O)(=O)N2CCCC2)c1F)c1c[nH]c2ncc(-c3ccnc(C4CC4)c3)cc12 [P-0295, N-[3-[5-(2-cyclopropyl-4-pyridyl)-1H-pyrrolo[2,3-b]pyridine-3-carbonyl]-2,4-difluoro-phenyl]pyrrolidine-1-sulfonamide] | < 1 | – |
| CCN(C)S(=O)(=O)Nc1cccc(C(=O)c2c[nH]c3ncc(Cl)cc23)c1F [P-0018, 5-chloro-3-[3-[[ethyl(methyl)sulfamoyl]amino]-2-fluoro-benzoyl]-1H-pyrrolo[2,3-b]pyridine] | < 1 | – |
| CCN(C)S(=O)(=O)Nc1ccc(F)c(C(=O)c2c[nH]c3ncc(-c4cncc(C(C)(C)O)c4)cc23)c1F [P-0306, 3-[3-[[ethyl(methyl)sulfamoyl]amino]-2,6-difluoro-benzoyl]-5-[5-(1-hydroxy-1-methyl-ethyl)-3-pyridyl]-1H-pyrrolo[2,3-b]pyridine] | > 1 | – |
| Cc1cnc2[nH]cc(C(=O)c3cccc(NS(=O)(=O)N4CCCC4)c3F)c2c1 [P-0023, N-[2-fluoro-3-(5-methyl-1H-pyrrolo[2,3-b]pyridine-3-carbonyl)phenyl]pyrrolidine-1-sulfonamide] | < 1 | – |
